Patent publication US20190015335A1, “HEPATOPROTECTIVE PARTICLES AND SYSTEMS AND METHODS OF USE THEREOF” (South Dakota Board of Regents, priority 2017, published 2019)
Blank lines part the entries; values can stand above or below the molecule they belong to.

Key:
[1] = tested on: caspase 3/7 in liver tissues; experiment: Caspase 3/7 activity in liver tissues of mice bearing B16F1 tumor (DOX); format: in vivo
Method: (§1) Mice bearing a B16F1 tumor were intravenously administered through the tail vein in different groups of eight: (1) pretreatment with 25 mg of MIL-88A-SFN per kg of mouse at day 0 (corresponding to 3 mg SFN per kg of mouse according to the loading capacity of SFN in MIL-88A), followed by DOX at day 1 at 10 mg per kg of mouse; (2) pretreatment with SFN at 3 mg per kg of mouse at day 0, followed by DOX at day 1 at 10 mg per kg of mouse; (3) PBS injected at day 0, followed by DOX at day 1 at 10 mg per kg of mouse; and (4) PBS injected at both day 0 and day 1. Liver and blood samples were collected and analyzed to identify liver damage and morphology.

[2] = tested on: CYP1A1/CYP1B1 in liver tissues; experiment: CYP1A1/CYP1B1 activity in liver tissues of mice bearing B16F1 tumor (DOX); format: in vivo
Method: as §1

liver tissues = experiment: Morphological microscopic analysis of liver tissues (DOX); format: in vivo, mice
Method: as §1

[3] = tested on: caspase 3/7 and caspase 9 in AML12 cells; experiment: Caspase 3/7 and caspase 9 activity in AML12 cells after doxorubicin; format: cell-based, mouse; conditions: FIG. 6
Method: (§2) MTT assay was performed to quantify AML12 cell survival after 24-hour exposure to 10 μM doxorubicin (DOX). The cells were pretreated with SFN or with MIL-88A-SFN. Control cells include those incubated with DOX without pretreatment, those incubated with MIL-88A-SFN alone without incubation with DOX, and those incubated with phosphate buffered saline (PBS). The activities of caspases and CYP1A1/CYP1B1 of these cells were also measured.

[4] = tested on: CYP1A1/CYP1B1 in AML12 cells; experiment: CYP1A1/CYP1B1 activity in AML12 cells after doxorubicin; format: cell-based, mouse; conditions: FIG. 7
Method: as §2

B16F1 tumor = experiment: Tumor volume in mice bearing B16F1 tumor, DOX with or without pretreatment; format: in vivo; conditions: DOX 10 mg per kg i.v. at day 1, with or without pretreatment, vs PBS only, FIG. 9
AML12 cells = experiment: MTT assay of AML12 cell survival after doxorubicin; format: cell-based, mouse; conditions: FIG. 5
Method: as §2

[5] = tested on: alanine aminotransferase (ALT) activity in blood serum; experiment: ALT activity in blood serum of mice bearing B16F1 tumor (DOX); format: in vivo
Method: as §1

[6] = tested on: GSTP1 and GSTA3 in B16F1 melanoma tumor tissues; experiment: Western blot of GST expression in tumor tissues of mice bearing B16F1 tumor; format: in vivo; conditions: i.v., day 1 and day 2, FIG. 8B
Method: Mice bearing B16F1 tumor were intravenously administered with SFN or MIL-88A-SFN at a dose of 10 mg SFN per kg animal, through the tail vein in groups of eight. The expression levels of GSTP1 and GSTA3 in the liver and tumor tissues were measured by western blot at 24 and 48 h following the intravenous administration. Tissues from the groups of mice treated with PBS or MIL-88A were also analyzed.

[7] = tested on: GSTP1, GSTA3 and NQO1 in AML12 cells; conditions: 10 μM SFN, FIG. 3
Method: To validate the protective effect of SFN on a mouse hepatocyte cell line AML12, the expression levels of two glutathione-S-transferase (GST) isoforms, P1 and A3 (denoted as GSTP1 and GSTA3, respectively) and NAD(P)H:quinone oxidoreductase (NQO1), were quantified using western blot analysis after incubating the AML12 cells with SFN for 12, 24, and 36 hours. Beta-actin was used as a loading control.

[8] = tested on: GST activity in AML12 cells; experiment: GST activity assay in AML12 cells; format: cell-based, mouse; conditions: 24 and 48 hours, 10 μM SFN, FIG. 4
Method: The effects of SFN (10 μM), MIL-88A MOF loaded with SFN (denoted as MIL-88A-SFN, 10 μM SFN final concentration), or a corresponding amount of unloaded MIL-88A MOF on the GST activity in AML12 cells were measured at 12, 24, or 48 hours after the treatment. The GST activity assay was performed in the presence of glutathione and 1-chloro-2,4-dinitrobenzene (a GST substrate). Measurements were performed in quadruplicate.

bilirubin in blood serum = experiment: Bilirubin concentration in blood serum of mice bearing B16F1 tumor (DTIC); format: in vivo; conditions: DTIC 120 mg per kg, 4 cycles, FIG. 17
Method: (§3) Mice bearing B16F1 tumor were intravenously administered through the tail vein in different groups of eight: (1) pretreatment with PLGA-SBN (corresponding to 10 mg SBN per kg of mouse), followed by dacarbazine (DTIC) on the next day at a dose of 120 mg per kg mouse; (2) pretreatment with SBN (10 mg per kg), followed by DTIC on the next day at a dose of 120 mg per kg mouse; (3) PBS, followed by DTIC on the next day at a dose of 120 mg per kg mouse; (4) pretreatment with plain PLGA and free (non-encapsulated) SBN (10 mg per kg of mouse), followed by PBS on the next day; and (5) PBS injected at both days (once per day). Liver and blood samples were collected and analyzed to identify liver damage and morphology.

[9] = tested on: alanine aminotransferase (ALT) activity in blood serum; experiment: ALT activity in blood serum of mice bearing B16F1 tumor (DTIC); format: in vivo; conditions: DTIC 120 mg per kg, 4 cycles, FIG. 16
Method: as §3

[10] = tested on: caspase 3 in liver tissues; experiment: Western blot of pro-caspase 3 and active caspase 3 in liver tissues (DTIC); format: in vivo, mice; conditions: DTIC 120 mg per kg, 4 cycles, FIG. 18
Method: as §3

[11] = pretreatment then 10 μM DOX 24 h

caspase activity in the liver tissues ([1]; DOX 10 mg per kg i.v., FIG. 11): induced an upregulation
CYP1A/CYP1B activity in the liver tissues ([2]; DOX 10 mg per kg i.v., FIG. 12): induced an upregulation
caspase activity ([3]; 10 μM DOX alone 24 h): highest caspase activity
level of CYP1A1/CYP1B1 ([4]; 10 μM DOX 24 h): induced an increase
Structure (SMILES): COc1cccc2c1C(=O)c1c(O)c3c(c(O)c1C2=O)C[C@@](O)(C(=O)CO)C[C@@H]3O[C@H]1C[C@H](N)[C@H](O)[C@H](C)O1 [DOX, doxorubicin]
liver morphology (hepatotoxicity) (liver tissues; DOX 10 mg per kg i.v.): induced moderate cholestasis, focal necrosis, and mononuclear infiltration of sinusoids
tumor volume (B16F1 tumor): lower tumor volumes up to at least 9 days
cell survival rate (AML12 cells; 10 μM DOX alone 24 h): lowest survival rate
ALT activity in blood serum ([5]; DOX 10 mg per kg i.v., FIG. 10): induced an upregulation

DOX-induced upregulation of CYP1A1/CYP1B1 after pretreatment [4, 11]: suppressed the upregulation
Structure (SMILES): C[S+]([O-])CCCCN=C=S (stereo not shown) [SFN, sulforaphane]
DOX-induced upregulation of liver caspase activity after pretreatment ([1]; 3 mg SFN per kg day 0, DOX 10 mg per kg day 1, FIG. 11): but not SFN, attenuated the upregulation
GST expression in B16F1 melanoma tumor tissues [6]: neither SFN nor MIL-88A-SFN strongly affected
expression of phase 2 enzymes GSTP1 and GSTA3 ([7]; 24 h, vs untreated cells): upregulation
expression of NQO1 [7]: enhanced expression
DOX-induced upregulation of liver CYP1A/CYP1B activity after pretreatment ([2]; 3 mg SFN per kg day 0, DOX 10 mg per kg day 1, FIG. 12): but not SFN, attenuated the upregulation
DOX-induced liver pathology after pretreatment (liver tissues; 3 mg SFN per kg day 0, DOX 10 mg per kg day 1): attenuated the aforementioned symptoms of hepatotoxicity
caspase activity after pretreatment [3, 11]: significantly decreased
apoptosis / cell survival after pretreatment (AML12 cells; [11]): significantly decreased apoptosis
DOX-induced upregulation of ALT activity after pretreatment ([5]; 3 mg SFN per kg day 0, DOX 10 mg per kg day 1, FIG. 10): attenuated the upregulation
GST activity [8]: equaled the GST activity in the cells treated with SFN-loaded MIL-88A

bilirubin concentration in blood serum (bilirubin in blood serum): induced an upregulation
caspase 3 activation in liver tissues [10]: induced caspase 3 activation
Structure (SMILES): CN(C)/N=N/c1[nH]cnc1C(N)=O [DTIC, dacarbazine]
ALT activity in blood serum [9]: induced an upregulation
